# Measurements taken from ChEMBL document CHEMBL2385074, “Structure-activity relationship analysis of bufadienolide-induced in vitro growth inhibitory effects on mouse and human cancer cells” (J Nat Prod, 2013).
# Calls of active or inactive are those of the source. The calls are words filed in the database; no cut-off is given here.
# Legend:
# A549 [1] = test: Cytotoxicity against human A549 cells after 3 days by MTT assay; format: functional, cell-based; conditions: A549, 72 h
# B16-F10 [2] = test: Cytotoxicity against mouse B16F10 cells after 3 days by MTT assay; format: functional, cell-based; conditions: B16-F10, 72 h
# PC-3 [3] = test: Cytotoxicity against human PC3 cells after 3 days by MTT assay; format: functional, cell-based; conditions: PC-3, 72 h
# MCF7 [4] = test: Cytotoxicity against human MCF7 cells after 3 days by MTT assay; format: functional, cell-based; conditions: MCF7, 72 h
# [5] = Cytotoxicity against human Hs683 cells after 3 days by MTT assay; format: functional, cell-based; conditions: Hs 683, 72 h
# SK-MEL-28 [6] = test: Cytotoxicity against human SK-MEL-28 cells after 3 days by MTT assay; format: functional, cell-based; conditions: SK-MEL-28, 72 h
# [7] = Cytotoxicity against human U373 cells after 3 days by MTT assay; format: functional, cell-based, U-373MG ATCC; conditions: U373 MG, 72 h
# [8] = Cytotoxicity against mouse CT26.WT cells after 3 days by MTT assay; format: functional, cell-based; conditions: 72 h
# MCF7 [9] = test: Cytotoxicity against human MCF7 cells at <= 10 uM after 3 days by MTT assay; format: functional, cell-based
# B16-F10 [10] = test: Cytotoxicity against mouse B16F10 cells at <= 10 uM after 3 days by MTT assay; format: functional, cell-based
# Hs 683 = test: Cytotoxicity against human Hs683 cells at <= 10 uM after 3 days by MTT assay; format: functional, cell-based
# A549 [11] = test: Cytotoxicity against human A549 cells at <= 10 uM after 3 days by MTT assay; format: functional, cell-based
# PC-3 [12] = test: Cytotoxicity against human PC3 cells at <= 10 uM after 3 days by MTT assay; format: functional, cell-based
# SK-MEL-28 [13] = test: Cytotoxicity against human SK-MEL-28 cells at <= 10 uM after 3 days by MTT assay; format: functional, cell-based
# CT26.WT = test: Cytotoxicity against mouse CT26.WT cells at <= 10 uM after 3 days by MTT assay; format: functional, cell-based
# U-373MG ATCC = test: Cytotoxicity against human U373 cells at <= 10 uM after 3 days by MTT assay; format: functional, cell-based
SMILES,IC50 (A549 [1]),IC50 (B16-F10 [2]),IC50 (PC-3 [3]),IC50 (MCF7 [4]),IC50 [5],IC50 (SK-MEL-28 [6]),IC50 [7],IC50 [8],Activity (MCF7 [9]),Activity (B16-F10 [10]),Activity (Hs 683),Activity (A549 [11]),Activity (PC-3 [12]),Activity (SK-MEL-28 [13]),Activity (CT26.WT),Activity (U-373MG ATCC)
CC(=O)O[C@H]1C[C@]2(O)[C@@H]3CC[C@@H]4C[C@@H](O)CC[C@]4(C)[C@H]3CC[C@]2(C)[C@H]1c1ccc(=O)oc1 [BUFOTALIN],14 nM,> 10000 nM,34 nM,37 nM,9 nM,65 nM,74 nM,> 10000 nM,,,,,,,,
C[C@]12CC[C@H](O)C[C@@H]1CC[C@@H]1[C@@H]2CC[C@]2(C)[C@@H](c3ccc(=O)oc3)CC[C@]12O,,> 10000 nM,67 nM,428 nM,21 nM,463 nM,362 nM,> 10000 nM,,,,,,,,
C[C@]12CC[C@H](OC(c3ccccc3)c3ccccc3)C[C@@]1(O)CC[C@@H]1[C@@H]2CC[C@]2(C)[C@@H](C(=O)OC(c3ccccc3)c3ccccc3)CC[C@]12O,,,,,,,,,inactive,inactive,inactive,inactive,inactive,inactive,inactive,inactive
C[C@@H]1O[C@@H](O[C@H]2CC[C@@]3(C)[C@H](CC[C@@H]4[C@@H]3[C@H](O)C[C@]3(C)[C@@H](c5ccc(=O)oc5)CC[C@]43O)C2)[C@H](O)[C@H](O)[C@H]1O,< 1 nM,659 nM,< 1 nM,8 nM,2 nM,5 nM,3 nM,877 nM,,,,,,,,
COC(=O)[C@H]1CC[C@]2(O)[C@@H]3CC[C@@H]4C[C@@H](OC(C)=O)CC[C@]4(C)[C@H]3[C@H](OC(C)=O)C[C@]12C,,,,,,,,,inactive,inactive,inactive,inactive,inactive,inactive,inactive,inactive
C[C@]12CC[C@H]3[C@@H](CC[C@H]4C[C@@H](O)CC[C@@]43C=O)[C@@]1(O)CC[C@@H]2c1ccc(=O)oc1,51 nM,> 10000 nM,2430 nM,278 nM,40 nM,336 nM,62 nM,> 10000 nM,,,,,,,,
COC(=O)[C@H]1CC[C@]2(OC=O)[C@@H]3CC[C@@H]4C[C@@H](OC(C)=O)CC[C@]4(C)[C@H]3[C@H](OC(C)=O)C(=O)[C@]12C,,,,,,,,,inactive,inactive,inactive,inactive,inactive,inactive,inactive,inactive
C[C@]12CCC(=O)C=C1CC[C@@H]1[C@@H]2CC[C@]2(C)[C@@H](c3ccc(=O)oc3)CC[C@]12O [SCILLARENONE],333 nM,> 10000 nM,284 nM,341 nM,73 nM,1610 nM,399 nM,> 10000 nM,,,,,,,,
CC(=O)N[C@@H]1CC[C@@]2(C)[C@H](CC[C@@H]3[C@@H]2CC[C@]2(C)[C@@H](c4ccc(=O)oc4)[C@@H](OC(C)=O)[C@H]4O[C@]342)C1,302 nM,> 10000 nM,426 nM,726 nM,312 nM,3510 nM,384 nM,> 10000 nM,,,,,,,,
CC(=O)O[C@H]1CC[C@@]2(C)[C@H](CC[C@@H]3[C@@H]2[C@H](OC(C)=O)C(=O)[C@]2(C)[C@@H]4CC[C@]32OC4=O)C1,,,,,,,,,inactive,inactive,inactive,inactive,inactive,inactive,inactive,inactive
CC(=O)O[C@H]1CC[C@@]2(C=O)[C@H](CC[C@@H]3[C@@H]2CC[C@]2(C)[C@@H](c4ccc(=O)oc4)C[C@H]4O[C@]342)C1,7140 nM,> 10000 nM,5340 nM,> 10000 nM,3660 nM,> 10000 nM,7050 nM,> 10000 nM,,,,,,,,
CC(=O)O[C@H]1CC[C@@]2(C)[C@H](CC[C@@H]3[C@@H]2[C@H](OC(C)=O)C(=O)[C@]2(C)[C@@H](c4ccc(=O)oc4)CC[C@]32O)C1,5910 nM,> 10000 nM,> 10000 nM,7260 nM,2620 nM,7980 nM,8810 nM,> 10000 nM,,,,,,,,
COC(=O)[C@H]1[C@@H](O)[C@H]2O[C@]23[C@@H]2CC[C@@H]4C[C@@H](OC(C)=O)CC[C@]4(C)[C@H]2CC[C@]13C,,,,,,,,,inactive,inactive,inactive,inactive,inactive,inactive,inactive,inactive
CC(=O)OC[C@H]1CC[C@H]2[C@@H]3CC[C@@H]4C[C@@H](OC(C)=O)CC[C@]4(C)[C@H]3C(=O)[C@@H](OC(C)=O)[C@]12C,,,,,,,,,inactive,inactive,inactive,inactive,inactive,inactive,inactive,inactive
COC(=O)[C@H]1CC[C@]2(O)[C@@H]3CC[C@@H]4C[C@@H](OC(C)=O)CC[C@]4(C)[C@H]3[C@H](OC(C)=O)[C@@H](OC(C)=O)[C@]12C,,,,,,,,,inactive,inactive,inactive,inactive,inactive,inactive,inactive,inactive
C[C@]12CC[C@H](O)C[C@H]1CC[C@@H]1C2=C(O)C(=O)[C@]2(C)[C@@H](c3ccc(=O)oc3)CC[C@]12O [ARGENTINOGENIN],53 nM,> 10000 nM,43 nM,36 nM,9 nM,70 nM,86 nM,> 10000 nM,,,,,,,,
C[C@]12CC[C@H](O)C[C@H]1CC[C@@H]1[C@@H]2C(=O)[C@@H](O)[C@]2(C)[C@@H](c3ccc(=O)oc3)CC[C@]12O [BUFARENOGIN],3840 nM,> 10000 nM,7420 nM,9300 nM,2680 nM,> 10000 nM,> 10000 nM,> 10000 nM,,,,,,,,
C[C@H]1O[C@@H](O[C@H]2[C@@H](O)C[C@H](O[C@H]3[C@@H](O)C[C@H](O[C@H]4CC[C@@]5(C)[C@H](CC[C@@H]6[C@@H]5C[C@@H](O)[C@]5(C)[C@@H](C7=CC(=O)OC7)CC[C@]65O)C4)O[C@@H]3C)O[C@@H]2C)C[C@H](O)[C@@H]1O [DIGOXIN],50 nM,> 10000 nM,75 nM,426 nM,40 nM,266 nM,146 nM,> 10000 nM,,,,,,,,
C[C@@H]1O[C@@H](O[C@H]2C[C@@H](O)[C@]3(CO)[C@H]4[C@H](O)C[C@]5(C)[C@@H](C6=CC(=O)OC6)CC[C@]5(O)[C@@H]4CC[C@]3(O)C2)[C@H](O)[C@H](O)[C@H]1O [OUABAIN],27 nM,> 10000 nM,43 nM,133 nM,28 nM,211 nM,77 nM,> 10000 nM,,,,,,,,
COC(=O)[C@H]1CC[C@]2(O)[C@@H]3CC[C@@H]4C[C@@H](OC(C)=O)CC[C@]4(C)[C@H]3[C@H](OC(C)=O)C(=O)[C@]12C,,,,,,,,,inactive,inactive,inactive,inactive,inactive,inactive,inactive,inactive
C[C@@H]1O[C@@H](O[C@H]2CC[C@]3(C=O)[C@H]4CC[C@]5(C)[C@@H](c6ccc(=O)oc6)CC[C@]5(O)[C@@H]4CC[C@]3(O)C2)[C@H](O)[C@H](O)[C@H]1O[C@@H]1O[C@H](CO)[C@@H](O)[C@H](O)[C@H]1O [HELLEBRIN],6 nM,> 10000 nM,11 nM,44 nM,7 nM,68 nM,36 nM,> 10000 nM,,,,,,,,
